The experiment concerns the target T1, hAhR (Homo sapiens, UniProt P35869).
T1 construct: Stably integrated DRE-luciferase cell lines were generated by transducing the both cell lines with Cignal XRE luciferase reporter (Qiagen) lentiviral particles; endogenous in cells; host or cells: HEPG2 (human hepatoma) with stably integrated XRE/DRE-luciferase reporter
T1 sequence (P35869 11-848): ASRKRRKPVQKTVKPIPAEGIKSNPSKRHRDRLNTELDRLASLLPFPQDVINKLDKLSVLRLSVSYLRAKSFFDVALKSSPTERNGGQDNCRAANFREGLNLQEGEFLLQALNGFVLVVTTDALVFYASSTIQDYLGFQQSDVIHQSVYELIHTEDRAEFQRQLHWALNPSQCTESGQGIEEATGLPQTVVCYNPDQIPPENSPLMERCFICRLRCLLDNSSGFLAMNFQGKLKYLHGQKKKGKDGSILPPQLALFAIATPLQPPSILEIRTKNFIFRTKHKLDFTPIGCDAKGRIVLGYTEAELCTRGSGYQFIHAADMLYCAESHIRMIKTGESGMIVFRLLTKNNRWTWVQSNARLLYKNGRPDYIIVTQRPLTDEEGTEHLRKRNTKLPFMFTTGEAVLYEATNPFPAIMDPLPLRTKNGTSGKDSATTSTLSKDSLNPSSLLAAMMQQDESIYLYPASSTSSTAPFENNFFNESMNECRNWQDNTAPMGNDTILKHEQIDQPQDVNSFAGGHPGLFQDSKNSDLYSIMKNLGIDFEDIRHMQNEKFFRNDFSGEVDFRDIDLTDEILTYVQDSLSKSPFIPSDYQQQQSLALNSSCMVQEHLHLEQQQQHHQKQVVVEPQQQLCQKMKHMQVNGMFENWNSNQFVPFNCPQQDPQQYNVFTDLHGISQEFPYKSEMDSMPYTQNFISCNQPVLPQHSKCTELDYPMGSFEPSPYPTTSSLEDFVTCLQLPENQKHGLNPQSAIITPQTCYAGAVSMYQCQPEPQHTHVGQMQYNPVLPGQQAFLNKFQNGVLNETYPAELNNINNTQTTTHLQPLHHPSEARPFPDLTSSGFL
The experiment is described as follows: DRE-luciferase transcriptional assay, antagonist mode, in HEPG2 DRE-Luc cells stimulated with TCDD. Format: cell-based. Conditions: for Emax: read-out: HEPG2 % Max Inhibition. How it is done: HEPG2 and HEPA1C1C7 cells were maintained in MEM and αMEM without nucleosides supplemented with 10% heat inactivated FBS respectively. Stably integrated DRE-luciferase cell lines were generated by transducing the both cell lines with Cignal XRE luciferase reporter (Qiagen) lentiviral particles according to the manufacturer protocol. For both cell lines stably integrated reporter cell lines were selected for the presence of 2 μg/mL puromycin. Following selection of stably integrated cell line pools, clonal cell lines were isolated by limiting dilution in 96-well plates. Transcriptional assays were performed by seeding 100 μL of cells at a density of 250,000 or 100,000 cells/mL, for HEPG2 and HEPA1C1C7 DRE-Luc cells respectively, into 96-well cell culture plates in OptiMEM supplemented with 0.5% heat inactivated FBS and allowed to attach overnight. For antagonist assays, the compounds were added in a semi-log dose response using a D300e Digital Dispenser (Tecan) followed normalization with vehicle (DMSO). Immediately following compound addition […] of 2,3,7,8-Tetrachlorodibenzo-p-dioxin (TCDD) was added to the cells to a final concentration of 3 nM or 0.3 nM for the HEPG2 and HEPA1C1C7 DRE-Luc cells respectively. Following 24 h incubation the medium was removed and the cells were lysed in 25 μL of Reporter Lysis Buffer (Promega). Firefly luciferase activity was measured immediately following the addition of 50 μL Luciferase Assay Reagent (Promega). The percent maximal activity for each point was determined using the following equation: 100−(RLUsample−RLUvehicle−TCDD)/(RLUvehicle+TCDD RLUvehicle−TCDD)*100. The relative IC50, defined as the compound concentration required to reduce the TCDD induced response between the top and bottom plateau of each individual dose response curve by half, for each compound was determined using Prism 7 (GraphPad Software).

[1] abbreviates: HEPG2 DRE-Luc cells, 3 nM TCDD, 24 h incubation.
Setting [2] is: HEPG2 DRE-Luc cells, 3 nM TCDD, 24 h incubation, relative IC50, read-out: IC50 hAhR (antagonist mode).

The values below come from patent US11530220B2, “Substituted imidazo[1,5-a]pyrazines and [1,2,4]triazolo[4,3-a]pyrazines for the modulation of AhR” (IDEAYA BIOSCIENCES, INC., priority 2018, dated 2022).

SMILES strings stand for the structures. Like-named read-outs stand apart in the source and are kept apart here.

As to `Cc1ncc(-c2cn3c(C(C)C)cnc3c(NCCc3c[nH]c4cccc(F)c34)n2)cc1F` [Example 26], the Emax under setting [1] came to 98%. Besides, under setting [2], the IC50 was 200 to 500 nM.
Consider `Cc1ncc(-c2cn3c(C(C)C)cnc3c(NCCc3c[nH]c4cccc(F)c34)n2)cn1` [Example 27, [2-(4-fluoroindol-3-yl)ethyl][3-isopropyl-6-(2-methylpyrimidin-5-yl)(4-hydroimidazo[1,2-a]pyrazin-8-yl)]amine], for which, under setting [1], the Emax was found to be 100%. Also, under setting [2], the IC50 was 200 to 500 nM.
As to `CC(C)c1cnc2c(NCc3cccc4[nH]ccc34)nc(-c3cncc(F)c3)cn12` [Example 28], the Emax under setting [1] turned out to be 33%. Besides, the half-maximal inhibitory concentration (IC50) under setting [2] is 500 to 1000 nM.
`CC(C)c1cnc2c(NCCn3ccc4ccccc43)nc(-c3cncc(F)c3)cn12` [Example 29] yielded an IC50 of 500 to 1000 nM. Moreover, the Emax (HepG2, 24 h) came out at 100%.
Take `CC(C)c1cnc2c(NCCn3cnc4ccccc43)nc(-c3cncc(F)c3)cn12` [Example 30, (2-benzimidazolylethyl)[6-(5-fluoro(3-pyridyl))-3-isopropyl(4-hydroimidazo[1,2-a]pyrazin-8-yl)]amine]: the IC50 under setting [2] fell in the range of 1000 to 10000 nM. In addition, the Emax (HepG2, 24 h) was 94%.
For the compound `Cc1nccn1-c1cn2c(C(C)C)cnc2c(NCc2ccc(C(N)=O)cc2)n1` [Example 31, 4-({[3-isopropyl-6-(2-methylimidazolyl)-4-hydroimidazo[1,2-a]pyrazin-8-yl]amino}methyl)benzamide], under setting [1], the Emax was determined as 31%. In addition, the IC50 under setting [2] lay in the range of 1000 to 10000 nM.
For the compound `Cc1nccn1-c1cn2c(C(C)C)cnc2c(OCCc2c[nH]c3ccccc23)n1` [Example 32, 8-(2-indol-3-ylethoxy)-3-(methylethyl)-6-(2-methylimidazolyl)-4-hydroimidazo[1,2-a]pyrazine], under setting [1], the Emax is 100%. For the same compound, under setting [2], the IC50 is 200 to 500 nM.

A word on the IC50: it is the concentration that inhibits the measured activity by half.
